The values that follow come from publication PMC6437697 (Journal of Medicinal Chemistry, 2019).

Molecules are shown by their SMILES.

What all share (experiment): KINOMEscan
Format in all cases: binding
Holding throughout (conditions): read-out: % control activity remaining

For assay [1], the target named is T1, ADCK4 (Homo sapiens, UniProt Q96D53).
T1 construct: purchased Eurofins DiscoverX KINOMEscan
T1 sequence (Q96D53 1-544): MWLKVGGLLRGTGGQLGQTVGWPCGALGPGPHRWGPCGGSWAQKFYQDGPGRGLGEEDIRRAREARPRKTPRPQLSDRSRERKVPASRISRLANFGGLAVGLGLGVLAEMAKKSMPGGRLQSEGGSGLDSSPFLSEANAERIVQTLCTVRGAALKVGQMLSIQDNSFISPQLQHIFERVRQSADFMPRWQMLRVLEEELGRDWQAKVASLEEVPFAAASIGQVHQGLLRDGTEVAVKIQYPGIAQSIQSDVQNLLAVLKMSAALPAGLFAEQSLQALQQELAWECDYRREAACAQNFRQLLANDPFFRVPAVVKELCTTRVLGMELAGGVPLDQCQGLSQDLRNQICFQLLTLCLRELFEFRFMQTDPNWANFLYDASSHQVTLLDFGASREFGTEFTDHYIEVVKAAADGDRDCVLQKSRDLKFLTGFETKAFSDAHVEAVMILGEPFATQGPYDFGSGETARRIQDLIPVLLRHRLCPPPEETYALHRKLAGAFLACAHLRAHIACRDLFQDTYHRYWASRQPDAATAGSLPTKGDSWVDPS

Assay [2] has as its target T2, FLT3(K663Q) (Homo sapiens, UniProt P36888, K663Q).
T2 construct: purchased Eurofins DiscoverX KINOMEscan
T2 sequence (P36888 27-993 K663Q): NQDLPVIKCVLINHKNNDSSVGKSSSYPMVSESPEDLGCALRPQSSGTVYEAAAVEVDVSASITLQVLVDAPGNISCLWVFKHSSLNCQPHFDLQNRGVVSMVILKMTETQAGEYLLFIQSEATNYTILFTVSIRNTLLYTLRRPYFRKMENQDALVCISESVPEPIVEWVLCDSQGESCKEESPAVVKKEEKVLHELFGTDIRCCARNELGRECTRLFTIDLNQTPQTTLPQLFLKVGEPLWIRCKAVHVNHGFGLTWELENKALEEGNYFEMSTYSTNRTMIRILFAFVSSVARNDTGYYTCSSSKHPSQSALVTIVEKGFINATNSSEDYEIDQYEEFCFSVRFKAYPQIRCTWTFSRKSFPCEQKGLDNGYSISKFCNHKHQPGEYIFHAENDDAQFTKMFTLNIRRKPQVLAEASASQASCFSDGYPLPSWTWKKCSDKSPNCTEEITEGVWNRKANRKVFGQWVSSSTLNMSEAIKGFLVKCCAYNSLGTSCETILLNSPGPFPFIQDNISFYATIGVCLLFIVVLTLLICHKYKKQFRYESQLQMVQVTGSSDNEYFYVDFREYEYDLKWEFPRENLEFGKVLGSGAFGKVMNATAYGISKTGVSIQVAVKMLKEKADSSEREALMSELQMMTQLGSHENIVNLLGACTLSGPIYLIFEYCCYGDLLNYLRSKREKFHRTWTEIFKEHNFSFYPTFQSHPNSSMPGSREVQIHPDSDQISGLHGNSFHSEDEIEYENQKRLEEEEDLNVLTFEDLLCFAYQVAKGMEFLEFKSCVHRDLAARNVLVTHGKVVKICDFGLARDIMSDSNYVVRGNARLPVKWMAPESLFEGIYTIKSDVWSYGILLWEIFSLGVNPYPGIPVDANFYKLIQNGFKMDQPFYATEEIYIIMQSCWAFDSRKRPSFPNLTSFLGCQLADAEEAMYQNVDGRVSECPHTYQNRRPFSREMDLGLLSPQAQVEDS

Assay [3] addresses T3, MEK4 (Homo sapiens, UniProt P45985).
T3 construct: purchased Eurofins DiscoverX KINOMEscan
T3 sequence (P45985 1-399): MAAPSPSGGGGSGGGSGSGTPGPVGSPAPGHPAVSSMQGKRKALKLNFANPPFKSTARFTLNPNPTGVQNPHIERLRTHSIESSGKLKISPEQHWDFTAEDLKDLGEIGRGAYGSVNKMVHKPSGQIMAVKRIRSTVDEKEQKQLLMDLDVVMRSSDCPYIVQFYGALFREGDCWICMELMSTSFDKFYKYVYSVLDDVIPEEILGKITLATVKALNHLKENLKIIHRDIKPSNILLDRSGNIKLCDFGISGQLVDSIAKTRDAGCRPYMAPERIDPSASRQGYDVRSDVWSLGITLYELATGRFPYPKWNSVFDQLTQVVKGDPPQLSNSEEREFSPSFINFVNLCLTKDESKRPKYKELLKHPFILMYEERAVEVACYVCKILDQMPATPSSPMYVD

Assay [4] addresses T4, PFTAIRE2 (Homo sapiens, UniProt Q96Q40).
T4 construct: purchased Eurofins DiscoverX KINOMEscan

In assay [5] the target is T5, RSK2(Kin.Dom.1-N-terminal) (Homo sapiens, UniProt P51812).
T5 construct: RSK2(Kin.Dom.1-N-terminal); purchased Eurofins DiscoverX KINOMEscan

Assay [6] addresses T6, TTK (Homo sapiens, UniProt P33981).
T6 construct: purchased Eurofins DiscoverX KINOMEscan
T6 sequence (P33981 1-857): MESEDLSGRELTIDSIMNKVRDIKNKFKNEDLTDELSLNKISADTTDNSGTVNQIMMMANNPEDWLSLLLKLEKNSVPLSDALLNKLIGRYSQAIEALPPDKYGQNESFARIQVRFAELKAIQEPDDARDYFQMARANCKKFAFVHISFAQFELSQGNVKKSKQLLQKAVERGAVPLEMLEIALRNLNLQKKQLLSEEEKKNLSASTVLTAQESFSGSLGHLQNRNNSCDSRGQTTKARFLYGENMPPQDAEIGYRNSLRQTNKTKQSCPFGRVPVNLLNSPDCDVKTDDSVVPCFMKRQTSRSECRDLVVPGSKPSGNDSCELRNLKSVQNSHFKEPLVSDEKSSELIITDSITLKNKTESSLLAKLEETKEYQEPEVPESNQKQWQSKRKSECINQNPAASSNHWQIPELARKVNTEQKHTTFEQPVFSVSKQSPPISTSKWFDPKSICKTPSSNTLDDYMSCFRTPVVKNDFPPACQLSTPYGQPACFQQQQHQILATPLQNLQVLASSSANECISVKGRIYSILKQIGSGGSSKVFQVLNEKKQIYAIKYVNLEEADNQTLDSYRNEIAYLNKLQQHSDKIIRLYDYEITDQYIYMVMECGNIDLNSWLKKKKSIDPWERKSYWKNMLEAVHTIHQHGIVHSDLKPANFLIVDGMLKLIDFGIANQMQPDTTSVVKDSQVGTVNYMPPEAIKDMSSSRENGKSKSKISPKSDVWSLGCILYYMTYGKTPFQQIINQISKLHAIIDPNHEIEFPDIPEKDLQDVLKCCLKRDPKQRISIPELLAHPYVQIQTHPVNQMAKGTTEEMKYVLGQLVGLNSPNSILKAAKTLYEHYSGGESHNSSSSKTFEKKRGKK

T4 sequence (Q96Q40 whole entry): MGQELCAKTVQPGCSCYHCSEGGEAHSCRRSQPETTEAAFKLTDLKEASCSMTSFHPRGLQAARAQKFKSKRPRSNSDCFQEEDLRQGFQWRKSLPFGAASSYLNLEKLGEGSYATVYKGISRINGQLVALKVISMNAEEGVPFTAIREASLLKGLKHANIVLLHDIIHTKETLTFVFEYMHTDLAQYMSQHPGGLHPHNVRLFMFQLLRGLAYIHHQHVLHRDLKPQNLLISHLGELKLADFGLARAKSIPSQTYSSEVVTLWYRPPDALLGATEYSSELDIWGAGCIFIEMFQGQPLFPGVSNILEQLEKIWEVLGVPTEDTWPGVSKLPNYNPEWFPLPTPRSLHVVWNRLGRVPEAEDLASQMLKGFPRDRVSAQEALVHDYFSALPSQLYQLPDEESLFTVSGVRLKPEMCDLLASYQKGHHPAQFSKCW
T5 sequence (P51812 68-327 limits assumed): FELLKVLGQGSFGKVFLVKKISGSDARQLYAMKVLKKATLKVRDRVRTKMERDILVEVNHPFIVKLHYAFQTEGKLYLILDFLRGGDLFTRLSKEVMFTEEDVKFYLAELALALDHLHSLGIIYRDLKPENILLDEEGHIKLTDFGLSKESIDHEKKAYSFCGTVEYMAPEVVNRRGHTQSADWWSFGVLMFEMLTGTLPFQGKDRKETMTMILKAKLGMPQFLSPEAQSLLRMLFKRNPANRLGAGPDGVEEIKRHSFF

As for `Clc1cc(NCC2CC2)c2ncc(-c3ccc4[nH]ncc4c3)n2n1` [compound 2, 6-Chloro-N-(cyclopropylmethyl)-3-(1H-indazol-5-yl)imidazo[1,2-b]pyridazin-8-amine], the remaining binding at 1 µM in assay [1] is 93%; in assay [2] it was 3.8%; in assay [3], 75%; in assay [4] it was 100%; in assay [5], 37%; in assay [6], 77%.

`O=C(CN1CCOCC1)N[C@H]1CC[C@H](Nc2cc(Cl)nn3c(-c4ccc5[nH]ncc5c4)cnc23)CC1` [compound 26]: the remaining binding at 1 µM in assay [1] was 84%; in assay [2], 13%; in assay [3] it was 100%; in assay [4], 40%; in assay [5] it was 19%; in assay [6], 54%.

On to `CN1CCC(CNc2cc(Cl)nn3c(-c4cc5nc(Nc6ccccc6)[nH]c5cc4F)cnc23)CC1` [compound 31, 6-Chloro-3-(6-fluoro-2-(phenylamino)-1H-benzo[d]imidazol-5-yl)-N-((1-methylpiperidin-4-yl)methyl)imidazo[1,2-b]pyridazin-8-amine], for which the remaining binding at 1 µM was found to be 77% in assay [1]; 83% in assay [2]; 100% in assay [3]; 91% in assay [4]; 100% in assay [5]; 90% in assay [6].
